Measurements reported in ChEMBL document CHEMBL1136630, “Cancer chemotherapy: a SN-38 (7-ethyl-10-hydroxycamptothecin) glucuronide prodrug for treatment by a PMT (Prodrug MonoTherapy) strategy” (Bioorg Med Chem Lett, 2003).

Legend:
[1] = Half-life time was determined; type: ADME
[2] = test system: HT-29; test: In vitro inhibitory concentration required against HT-29 human colon cancer cells in the presence of beta-D-glucuronidase; type: functional, cell-based
[3] = test system: HT-29; test: In vitro inhibitory concentration required against HT-29 human colon cancer cells; type: functional, cell-based

What does the source list for `CCc1c2c(nc3ccc(OC(=O)N(C)c4cc([N+](=O)[O-])ccc4OC4CC(C(=O)O)C(O)C(O)C4O)cc13)C1CC3=C(COC(=O)[C@]3(O)CC)C(=O)N1C2` (some centres undefined)?
half-life [1]: 12.7 min; IC50 [2]: 26 nM; IC50 [3]: 1980 nM

Which IC50 [3] does the source give for `CCc1c2c(nc3ccc(O)cc13)-c1cc3c(c(=O)n1C2)COC(=O)[C@]3(O)CC` [7-ETHYL-10-HYDROXYCAMPTOTHECIN] here?
The IC50 was 27.3 nM.
